Measured values: patent publication US3971814A, “Benzo(b)thiophene derivatives” (priority 1972, dated 1976)
Where two headings read alike, the source gives them in different places.

Key:
[1] = tested on: Kaolin Edema of the Rat Paw; assay: Kaolin edema of the rat paw; format: in vivo; details: for 60 min. (paw edema) / 120 min. (paw edema) / 180 min. (paw edema): ig., section K
Procedure: test animals used are the same as stated under Example B and up to the beginning of the test, the procedure corresponded to that described under this example.
After an initial measurement, a sterile 25% kaolin suspension was injected (0.05 ml/paw) subplantarly. The test substances are administered immediately, and after 60, 120, and 180 minutes the paw volume is again determined.
Evaluation of the tests was performed as stated under Example C, and the results so obtained presented below: […]

[2] = tested on: Carrageenin Edema of the Rat Paw; assay: Carrageenin edema of the rat paw; format: in vivo
Procedure: test animals used are the same as stated under Example B and up to the initial measurement, the procedure corresponded to that described under this example.
After an initial measurement, the test substances are administered and after 60 minutes a 1% Carrageenin suspension is injected subplantarly (0.1 ml/paw). After 60 and 180 minutes the paw volume is again determined. Here, too, the blank control group was treated with the carrier alone.
The increase in the volume of the paw after 60 minutes is considered as the first phase of the biphase edema and that after 180 minutes, as compared to the 60-minute-value, as the second phase. Moreover, the total increase of the paw edema within 180 minutes, as compared to the initial value, is also determined.
Determination of the influence exerted by the substances upon the development of the paw edema and calculation of the ED50 are done as under Example B.

Granulation Tissue = assay: Cotton-pellet test (granulation tissue); format: in vivo; details: rat
Procedure: test animals are male rats (SIV 50) weighing 110 to 200 g. All test animals are kept fasting for 16 to 18 hours prior to the implantation of the pellets; after that food and water were available ad libitum. Each dose level of the chemical tested was administered to 12 animals. The substances were suspended in 1% Tragacanth mucilage and administered intragastrically by means of a stomach tube. The substances to be investigated and the control suspensions are administered once on the operating day following operation, and twice a day on the following 6 days (at intervals of 6 to 8 hours). The type of application and volume of liquid corresponded to that under B.
Under light ether anesthesia 4 sterile cotton pellets were implanted under the skin on the back of the animal. The weight of one pellet was 50 mg ± 0.5 mg. After 7 days treatment, the animals were sacrificed, the pellets removed with the granulation tissue, weighed and then dried in the incubator at +80°C to constant weight. The average dry weight of the granulation tissue of the control group was rated 100%, and deviations of the mean weights of the group treated with the test substance determined as a percentage thereof.
The weight of the animals is measured daily throughout the tests, and the percental increase determined. At the end of some tests, moreover, the suprarenal glands are removed and their weight determined.

male mice (NMRI) = assay: Hot-plate test (analgesia); format: in vivo; details: mouse, i.g., up to 400 mg/kg
Procedure: male mice (NMRI) weighing 18 to 28 g are used as test animals. The animals are placed on a copper plate constantly kept at 55°C, and the time is measured until they lick their forepaws.
Following 3 initial measurements, the test substances are administered intragastrically. Afterwards the measurements are repeated over a period of 2 hours at intervals of 30 minutes. Each dose is administered to 10 animals selected from groups of 15 animals following the initial measurements.
The test substances are administered as a suspension in 1% Tragacanth mucilage, the volume of liquid amounting to 2 ml/100 g of body weight.
For the purpose of statistical evaluation according to Litchfield and Wilcoxon, those animals in which the reaction time has been extended by at least 100% are considered protected.

[3] = tested on: Yeast Edema of the Rat Paw; assay: Yeast edema and determination of pain threshold in the rat paw; format: in vivo; details: 3 h
Procedure: test animals are male rats (SIV 50) weighing 100 to 180 g. […] 10 animals belonged to each dosage group.
The volume of the paw is determined according to the method described by Enders and Heidbrink, the pain threshold according to that described by Randall and Selitto (Arch. Int. Pharmacodyn CXI: 409, 1957).
Following initial measurements, […] of a 5% suspension of dried yeast is injected subplantarly into the right paw and the test substances are administered immediately. The blank control group is given Tragacanth mucilage only. After 3 hours the pain threshold and the volume of the paw are determined again.
The mean value of the increase in paw volume of the animals of the blank control after 3 hours is rated 100%, and the mean value of the increase in paw volume of the animals of the substance groups expressed as a percentage thereof. Pain threshold after 3 hours reflects the increase or decrease in percent, compared to the initial value.
In order to be able to calculate the ED50 according to the method by Lichtfield and Wilcoxon (J.P.E.T. 96:99, 1949), those animals in a dose group are considered protected when the paw swelling was at least 40% less than that of the blank control.

Granuloma Pouch = assay: Granuloma pouch test; format: in vivo; details: rat
Procedure: Under light ether anesthesia 25 ml of air are injected under the shaved skin of the back. 0.5 ml of croton oil/animal (0.05%) are injected into the pouch formed by the air, and evenly distributed over the back by turning the animal.
On the third day croton oil (3%, 0.5 ml/animal) is again injected into this pouch.
The average dry weights of the granuloma pouches and the quantities of secretion of the groups subjected to treatment are then compared with those of the control group and the percental deviations calculated.
At the end of some tests the suprarenal glands are removed and the weight of these organs is also determined.
The weight of the animals is measured daily and the changes determined as a percentage.

[4] = Summary: calculated ED50 and therapeutic ratio; format: in vivo, rat; details: for ED50: Rattus norvegicus
Procedure: From the ED50 and LD50 (A) the following therapeutic ratios for this test are calculated: […]

in vivo = details: mouse
[5] = tested on: Arthritis Induced by the Freund Adjuvant; assay: Adjuvant arthritis; format: in vivo; details: rat, i.g., 2 × 60.0 mg/kg
Procedure: test animals used are the same as described under Example E; food and water is given ad libitum.
On the first day of the test a 0.8% suspension of Mycobacterium butyrium in paraffin (0.05 or 0.1 ml/paw) is injected subplantarly into the left hind paw of the animals. […] From the 19th to the 22nd day the animals showing a reaction are treated intragastrically with the test substances. The right paw having been marked above the ankle-joint, the volume is determined daily from the 19th to the 22nd or 23rd day, according to the process described under Example B.
The volume of liquid, as well as of the carrier administered, corresponded to that described in the above tests.

[6] = po, ig., section K, read-out: volume (paw, control = 100%)
[7] = ig., 2×50.0 mg/kg daily, section K
[8] = ig., 2×90.0 mg/kg daily, section K

CC(=O)Oc1ccccc1C(=O)O [Acetylsalicylic Acid, acetylsalicylic acid]
60 Minutes (paw edema) ([1]; 300.0 mg/kg): 156% | 120 Minutes (paw edema) ([1]; 300.0 mg/kg): 93% | 180 Minutes (paw edema) ([1]; 300.0 mg/kg): 82% | 60 min. (paw edema) ([1]; 300 mg/kg): 156% | 120 min. (paw edema) ([1]; 300 mg/kg): 93% | 180 min. (paw edema) ([1]; 300 mg/kg): 82% | 1st Phase (paw edema) ([2]; 100.0 mg/kg): 83% | 2nd Phase (paw edema) ([2]; 100.0 mg/kg): 114% | 3 Hrs. (total paw edema) ([2]; 100.0 mg/kg): 96% | 1st Phase (paw edema) ([2]; 200.0 mg/kg): 95% | 2nd Phase (paw edema) ([2]; 200.0 mg/kg): 60% | 3 Hrs. (total paw edema) ([2]; 200.0 mg/kg): 76% | Granulation Tissue % (Dry Weight) (Granulation Tissue; i.g., 2 × 200 mg/kg daily): 89% | Increase in Body Weight (Granulation Tissue; i.g., 2 × 200 mg/kg daily): not influenced | Notes (analgesic activity) (male mice (NMRI)): ineffective | Volume (increase in paw volume, blank control = 100%) ([3]; i.g., 150.0 mg/kg): 134% | Pain Threshold (change vs initial value) ([3]; i.g., 300.0 mg/kg): -15% | Volume (increase in paw volume, blank control = 100%) ([3]; i.g., 300.0 mg/kg): 81% | Granuloma Pouch Dry Weight (Granuloma Pouch; i.g., 2 × 150 mg/kg daily): 88% | Increase in Body Weight (Granuloma Pouch; i.g., 2 × 150 mg/kg daily): not influenced | Secretion (Granuloma Pouch; i.g., 2 × 150 mg/kg daily): 121% | ED50 [4]: 192 mg/kg | therapeutic ratio ([4]; from ED50 and LD50 (A)): 10.7

COC(=N)c1sc2ccccc2c1O [Example 1, Methyl 3-Hydroxy-Benzo[b]Thiopene-2-Carboximidate]
change in vivo at 75 mg/kg ([3]; po, ig., 75 mg/kg, section K (control -23)): -10% | response vs control in vivo at 75 mg/kg ([3]; po, ig., 75 mg/kg, section K (control pain -23), read-out: volume (paw, control = 100%)): 32% | LD50 (in vivo; po): > 1600 mg/kg

COCCOC(=N)c1sc2ccccc2c1O [Example 10]
60 min. (paw edema) ([1]; 200 mg/kg): 67% | 120 min. (paw edema) ([1]; 200 mg/kg): 47% | 180 min. (paw edema) ([1]; 200 mg/kg): 46% | change in vivo at 200 mg/kg ([3]; po, ig., section K): -49% | response vs control in vivo at 200 mg/kg [3, 6]: 73% | change in vivo at 250 mg/kg ([3]; po, ig., 250 mg/kg, section K (control -35)): -30% | response vs control in vivo at 250 mg/kg ([3]; po, ig., 250 mg/kg, section K, read-out: volume (paw, control = 100%)): 33% | LD50 (in vivo; po): ~1600 mg/kg

CCOCCOC(=N)c1sc2ccccc2c1O [Example 11]
60 min. (paw edema) ([1]; 50 mg/kg): 40% | 120 min. (paw edema) ([1]; 50 mg/kg): 36% | 180 min. (paw edema) ([1]; 50 mg/kg): 56% | 60 min. (paw edema) ([1]; 100 mg/kg): 22% | 120 min. (paw edema) ([1]; 100 mg/kg): 27% | 180 min. (paw edema) ([1]; 100 mg/kg): 46% | change in vivo at 200 mg/kg ([3]; po, ig., section K): 32% | response vs control in vivo at 200 mg/kg [3, 6]: 41% | LD50 (in vivo; po): > 1600 mg/kg

CN(C)CCNC(=N)c1sc2ccccc2c1O [Example 31]
response vs control in vivo at 200 mg/kg [3, 6]: 75% | LD50 (in vivo; po): > 1600 mg/kg | LD50 (in vivo; sc): > 800 mg/kg

N=C(NCCN1CCOCC1)c1sc2ccccc2c1O [Example 33]
change in vivo at 225 mg/kg ([3]; sc., 225 mg/kg, section K (control -10)): 34% | response vs control in vivo at 225 mg/kg ([3]; sc., 225 mg/kg, section K, read-out: volume (paw, control = 100%)): 46% | LD50 (in vivo; sc): ~1000 mg/kg

N=C(NCCN1CCCC1)c1sc2ccccc2c1O [Example 34]
response vs control in vivo at 125 mg/kg ([3]; sc., 125 mg/kg, section K, read-out: volume (paw, control = 100%)): 54% | granuloma pouch dry weight % (Granuloma Pouch; [7]): 79% | secretion % (Granuloma Pouch; [7]): 75% | increase in body weight % (Granuloma Pouch; ig., 2×50.0 mg/kg daily, section K, control 55): 51% | LD50 (in vivo; sc): ~600 mg/kg

CCOCCCNC(=N)c1sc2ccccc2c1O [Example 41]
granulation tissue % dry weight (Granulation Tissue; ig., 2×150 mg/kg daily, section K): 90% | increase in body weight % (Granulation Tissue; ig., 2×150 mg/kg daily, section K, control 36): 29% | change in vivo at 125 mg/kg ([3]; po, ig., 125 mg/kg, section K (control -9)): 22% | response vs control in vivo at 125 mg/kg ([3]; po, ig., 125 mg/kg, section K, read-out: volume (paw, control = 100%)): 51% | LD50 (in vivo; po): ~1600 mg/kg

CCCCC1C(=O)N(c2ccccc2)N(c2ccccc2)C1=O [Phenylbutazone, 4-n-Butyl-1,2-diphenyl-3,5-dioxo-pyrazolidine]
60 Minutes (paw edema) ([1]; 90.0 mg/kg): 107% | 120 Minutes (paw edema) ([1]; 90.0 mg/kg): 100% | 180 Minutes (paw edema) ([1]; 90.0 mg/kg): 81% | 1st Phase (paw edema) ([2]; 60.0 mg/kg): 114% | 2nd Phase (paw edema) ([2]; 60.0 mg/kg): 52% | 3 Hrs. (total paw edema) ([2]; 60.0 mg/kg): 77% | 1st Phase (paw edema) ([2]; 150.0 mg/kg): 81% | 2nd Phase (paw edema) ([2]; 150.0 mg/kg): 15% | 3 Hrs. (total paw edema) ([2]; 150.0 mg/kg): 38% | Granulation Tissue % (Dry Weight) (Granulation Tissue; i.g., 2 × 90 mg/kg daily): 78% | Increase in Body Weight (Granulation Tissue; in vivo, 90 mg/kg): not influenced | Volume (increase in paw volume, blank control = 100%) ([3]; i.g., 150.0 mg/kg): 74% | Volume (increase in paw volume, blank control = 100%) ([3]; i.g., 300.0 mg/kg): 67% | Swelling [5]: 84% | Granuloma Pouch Dry Weight (Granuloma Pouch; i.g., 2 × 90 mg/kg daily): 84% | Secretion (Granuloma Pouch; i.g., 2 × 90 mg/kg daily): 96% | granuloma pouch dry weight % (Granuloma Pouch; [8]): 84% | secretion % (Granuloma Pouch; [8]): 96% | Increase in Body Weight (Granuloma Pouch; in vivo, 90 mg/kg): not influenced | increase in body weight % (Granuloma Pouch; in vivo, 90 mg/kg): 57% | ED50 [4]: 20.1 mg/kg
